Measurements as given in patent publication EP4635958A1, “PYRIMIDINE-CONTAINING POLYCYCLIC DERIVATIVE INHIBITOR, AND PREPARATION METHOD THEREFOR AND USE THEREOF” (Shanghai Hansoh Biomedical Co., Ltd., priority 2022, dated 2024).
Structures can show the parent of a compound that is named as a salt.

Columns and labels:
AsPC-1 = assay: Inhibition of proliferation of KRAS G12D mutant tumor cell line AsPC-1 (CellTiter-Glo); type: cell-based; conditions: Homo sapiens, ASPC1, about 72 h
Method in brief: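 KRAS G12D-mutant AsPC-1 cells plated overnight at 37 °C/5% CO2, then exposed to serial compound dilutions (DMSO/medium, vehicle control) for about 72 h. Viability read by CellTiter-Glo luminescence; inhibition rate vs concentration fitted by nonlinear regression for IC50.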

[1] = Plasma stability test, dog plasma; type: in vitro ADME; conditions: Dog plasma, 37°C; for half-life: read-out: t1/2 (converted);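 for all read-outs here: parent compound left in dog plasma quantified by LC-MS with positive electrospray ionization, selected reaction monitoring and an internal standard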
Experimental: Liquid chromatography-mass spectrometer, centrifuge, vortexer, pipette, continuous dispenser, 96-well plate, 50% methanol aqueous solution, acetonitrile solution containing internal standard, blank matrix (plasma of rat, dog, or human), Propantheline (propantheline bromide), Mevinolin (lovastatin), and test compound.
After whole blood was collected from animals or humans, it was placed in a test tube containing an anticoagulant and centrifuged at 3500 rpm for 10 min to collect the upper pale yellow plasma.
The compound was weighed and the stock solution was formulated with DMSO and the working solution was formulated with 100 mM phosphate buffer.
• Instrument: API4000 liquid chromatography-mass spectrometer, AB Company, USA; • the ion source was electrospray ionization source (ESI); • drying gas (N2) temperature was 500°C; • electrospray voltage was 5500V; • the detection method was positive ion detection; • the scanning method was selected reaction monitoring (MRM); • the scanning time was 0.1s.

SMILES	IC50 (AsPC-1) [nM]	Remaining rate (%) 0 min [1] [%]	Remaining rate (%) 15 min [1] [%]	Remaining rate (%) 30 min [1] [%]	Remaining rate (%) 60 min [1] [%]	Remaining rate (%) 120 min [1] [%]	half-life [1] [h]
C#Cc1c(F)ccc2cc(O)cc(-c3nc4c5c(nc(OCC6(CN7CCC(=C(F)F)CC7)CC6)nc5c3F)N3C[C@H]5CC[C@H](N5)[C@H]3[C@H](C)O4)c12 [Example 19-1, 4-((5S,5aS,6S,9R)-12-((1-((4-(difluoromethylene)piperidin-1-yl)methyl)cyclopropyl)methoxy)-1-fluoro-5-methyl-5a,6,7,8,9,10-hexahydro-5H-4-oxa-3,10a,11,13,14-pentaaza-6,9-methylnaphtho[1,8-ab]hept-2-yl)-5-ethynyl-6-fluoronaphthalene-2-ol]	3.1	100.00	95.89	101.96	101.84	94.59	75.5
C#Cc1c(F)ccc2cc(O)cc(-c3nc4c5c(nc(OCC6(CN7CCC(=NOC)CC7)CC6)nc5c3F)N3C[C@H]5CC[C@H](N5)[C@H]3[C@H](C)O4)c12 [Example 35-1, 1-((1-((((5S,5aS,6S,9R)-2-(8-ethynyl-7-fluoro-3-hydroxynaphthalen-1-yl)-1-fluoro-5-methyl-5a,6,7,8,9,10-hexahydro-5H-4-oxa-3,10a,11,13,14-pentaaza-6,9-methylenenaphtho[1,8-ab]heptalen-12-yl)oxo)methyl)cyclopropyl)methyl)piperidin-4-one O-methyloxime formate]	3.8						
[2H]C([2H])([2H])[C@@H]1Oc2nc(-c3cc(O)cc4ccc(F)c(C#C)c34)c(F)c3nc(OCC4(CN5CCC(=CF)CC5)CC4)nc(c23)N2C[C@H]3CC[C@H](N3)[C@@H]12 [Example 164]	6.6	100.00	92.40	94.94	96.81	91.42	51.9
[2H]C([2H])(Oc1nc2c3c(nc(-c4cc(O)cc5ccc(F)c(C#C)c45)c(F)c3n1)O[C@@H](C)[C@@H]1[C@@H]3CC[C@H](CN21)N3)C1(C([2H])([2H])N2CCC(=CF)CC2)CC1 [Example 291, 5-ethynyl-6-fluoro-4-((5S,5aS,6S,9R)-1-fluoro-12-((1-((4-(fluoromethylene)piperidin-1-yl)methyl-d2)cyclopropyl)methoxy-d2)-5-methyl-5a,6,7,8,9,10-hexahydro-5H-4-oxa-3,10a,11,13,14-pentaaza-6,9-methylnaphtho[1,8-ab]hept-2-yl)naphthalen-2-ol]	4.6	100.00	104.39	94.89	103.00	99.65	94.6
CON=C1CCN(CC2(COc3nc4c5c(nc(-c6cc(N)cc(Cl)c6C(F)(F)F)c(F)c5n3)O[C@@H](C)[C@@H]3[C@@H]5CC[C@H](CN43)N5)CC2)CC1 [Example 337, 1-((1-((((5S,5aS,6S,9R)-2-(5-amino-3-chloro-2-(trifluoromethyl)phenyl)-1-fluoro-5-methyl-5a,6,7,8,9,10-hexahydro-5H-4-oxa-3,10a,11,13,14-pentaaza-6,9-methylnaphtho[1,8-ab]heptene-12-yl)oxy)methyl)cyclopropyl)methyl)piperidin-4-one O-methyloxime]	1.2						
[2H]C([2H])([2H])[C@@H]1Oc2nc(-c3cc(N)cc(Cl)c3C(F)(F)F)c(F)c3nc(OCC4(CN5CCC(=NOC)CC5)CC4)nc(c23)N2C[C@H]3CC[C@H](N3)[C@@H]12 [Example 339]	3.5						
